# Measurements as given in PMC6804113, “Cyclic Peptides Acting as Allosteric Inhibitors of Human Thymidylate Synthase and Cancer Cell Growth” (Molecules, 2019).
# “And” between values parts separate entries of the source, which are not always exact repeats. Identical values can stand only once. “Also recorded” adds a separate entry of the source. Like-named read-outs stand apart in the source and are kept apart here. Starred links: 1 amine or outer side, 2 acyl side, 3 side chain; linkers in the order of their positions; H or OH if unused. Positions of bridges follow the written chain, without caps; N, C: chain ends. Residues, ends and D or L forms follow the SMILES beside them. No end group written: not given here. Cysteamide = C(CS[*:3])N[*:1]
# Legend:
# IGROV-1 cells = experiment: Cytotoxicity, crystal violet cell growth assay, peptides transfected with SAINT-PhD; assay type: cell-based, human; conditions: at 10 and 25 µM, ranking among the 10 cPs, SAINT-PhD delivery
# Protocol: (§1) The IGROV-1, A2780, and A2780/CP human ovarian cancer cell lines were grown as monolayer in RPMI 1640 medium containing 10% heat-inactivated fetal bovine serum and 50 µg/mL gentamycin sulfate (Euroclone, Devon, UK). Cultures were equilibrated with humidified 5% CO2 in air at 37 °C. The cDDP-resistant variant A2780/CP cell line, derived from the parent A2780 cell line, is about 10-fold resistant to cDDP and was developed by monthly exposure to cDDP, followed by chronic exposure to stepwise increases in cDDP concentration. All studies were performed in Mycoplasma negative cells, as routinely determined with the MycoAlert Mycoplasma detection kit (Lonza, Walkersville, MD, USA).
# (§2) Treatment with each peptide was performed according to the standard transfection protocol of the SAINT-PhD delivery system (Synvolux Therapeutics, Leiden, Netherlands). Complexes of peptide (µg) with SAINT-PhD (µL) were prepared at appropriate ratios corresponding to the approximate µM concentrations indicated. For each protein sample, complexes were prepared as follows: for the treatment of a 24-well plate, the appropriate amount of each peptide was diluted in HBS, then SAINT-PhD was pipetted into the solution without vortexing; then, the mixture was incubated for 5 min at room temperature, and filled up to 500 µL with serum-free medium. The culture medium was aspirated from the cells, the SAINT-PhD/peptide complex was added to the wells and incubated 4 h (37 °C, 5% CO2). Afterward, complete RPMI was added to reach the appropriate volume for maintaining the cell culture for the duration of the experiments.
# (§3) Cell growth was determined using a modified crystal violet assay. On selected days, the tissue culture medium was removed, and the cell monolayer fixed with methanol and stained with 0.2% crystal violet solution in 20% methanol for at least 30 min. After being washed several times with distilled water to remove excess dye, the cells were left to dry. The incorporated dye was solubilized in acidified isopropanol (1N HCl: 2-propanol, 1:10). After appropriate dilution, absorbance was determined spectrophotometrically at 540 nm. The extracted dye was proportional to cell biomass. The percentage of cytotoxicity was calculated by comparing the absorbance of cultures exposed to the drug to unexposed (control) cultures.
# [1] = target: T1, recombinant human thymidylate synthase (hTS) (Homo sapiens, UniProt P04818); experiment: hTS inhibition assay (spectrophotometric, absorbance at 340 nm); assay type: biochemical; conditions: for IC50: room temperature (20–22 °C) under stirring, standard error ±20% of the value; for % inhibition of hTS: at 500 µM and 37 °C under stirring
# T1 construct: made in house
# T1 sequence (P04818 whole entry): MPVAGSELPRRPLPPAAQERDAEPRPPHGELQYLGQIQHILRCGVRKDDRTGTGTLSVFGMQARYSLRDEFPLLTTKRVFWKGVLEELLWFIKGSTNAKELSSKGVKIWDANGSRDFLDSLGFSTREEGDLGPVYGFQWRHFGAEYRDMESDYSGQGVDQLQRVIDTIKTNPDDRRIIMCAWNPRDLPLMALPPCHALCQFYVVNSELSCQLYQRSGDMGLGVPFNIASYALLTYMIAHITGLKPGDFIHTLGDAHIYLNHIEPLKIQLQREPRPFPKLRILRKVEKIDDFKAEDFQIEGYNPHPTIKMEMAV
# [2] = target: T1, recombinant human thymidylate synthase (hTS); experiment: as above; assay type: biochemical; conditions: for % inhibition of hTS / inhibition at 500 µM: at 500 µM and r.t.
# Protocol: hTS was purified as previously reported. The enzyme solution was thawed the day of the experiment and the enzyme concentration was determined by UV−Vis spectroscopy (Varian Cary 100, Agilent, Santa Clara, CA, USA) using ε280 = 89000 M^−1 cm^−1 and Mr = 74 229. The thawed protein solution was kept constantly at 4 °C. In this condition, the enzyme was able to reproduce normal kinetic activity values (KM dUMP = 10−12 μM, KM mTHF = 4−6 μM, kcat = 0.8−0.9 s^−1). The peptide solution was mixed or vortexed in order to help solubilization; the precise concentration was determined through UV−Vis spectroscopy. A stock solution of mTHF was prepared in carbonate buffer. The stock was prepared in the range of 5 to 6 mM. A stock solution of dUMP was prepared in bidistilled water in the range of 10−12 mM. Peptide inhibitors were tested without incubation with hTS in […], at 25 °C. A 1 mL amount of assay buffer consisted of 50 mM TES, pH 7.4, containing 25 mM MgCl2, 6.5 mM HCHO, 1 mM EDTA, 75 mM β-mercaptoethanol (β-ME), 0.120 mM dUMP, and 0.060 mM mTHF. Following the addition of the enzyme (300 nM) and inhibitor mixture, the absorbance was monitored at 340 nm in a UV−Vis spectrophotometer for 3 min. In the control sample, an equal aliquot of enzyme alone was added. hTS activity inhibition percentages (I%) values were measured at 0.100−3000 µM concentration of inhibitor. […] The kinetic inhibition pattern was studied for compound 7 [12]. The inhibition values are expressed as mean ± SEM; n = 3.
# A2780 cells = experiment: Cytotoxicity, crystal violet cell growth assay, peptides transfected with SAINT-PhD; assay type: cell-based, human; conditions: SAINT-PhD delivery
# Protocol: as §1, §2, §3
# A2780/CP cells = experiment: as above; assay type: cell-based, human; conditions: SAINT-PhD delivery
# Protocol: as §1, §2, §3
# [3] = target: T1, recombinant human thymidylate synthase (hTS); conditions: at 100 µM; ref [20]; cited from earlier work
Compound,cytotoxicity (in words) (IGROV-1 cells),IC50 [1],% inhibition of hTS [1],% inhibition of hTS [2],inhibition at 500 µM [2] [%],further results
"CC(C)C[C@@H]1NC(=O)[C@H](CCC(N)=O)NC(=O)[C@H](C)NC(=O)[C@@H](NC(=O)[C@@H](N)CC(C)C)CSSC[C@@H](C(=O)O)NC(=O)[C@H](CCC(N)=O)NC(=O)[C@H](Cc2ccc(O)cc2)NC1=O [Peptide 2, Leu-c[Cys-Ala-Gln-Leu-Tyr-Gln-Cys]] (H-LCAQLYQC-OH; disulfide 2-8)",least active,900 µM,–,–,–,inhibition at 400 µM ([2]; at 400 µM and r.t. under stirring): 36%
"CC(C)C[C@@H]1NC(=O)[C@H](CCC(N)=O)NC(=O)[C@@H]2CCCN2C(=O)[C@@H](NC(=O)[C@@H](N)CC(C)C)CSSC[C@@H](C(=O)N[C@@H](CCC(N)=O)C(=O)N[C@@H](CCCNC(=N)N)C(=O)O)NC1=O [Peptide 6, Leu-c[Cys-Pro-Gln-Leu-Cys]-Gln-Arg] (H-LCPQLCQR-OH; disulfide 2-6)",least active; also recorded: almost non-cytotoxic,–,inactive,inactive,–,cytotoxicity (in words) (A2780 cells): almost non-cytotoxic; cytotoxicity (in words) (A2780/CP cells): almost non-cytotoxic
"CC(C)C[C@@H]1NC(=O)[C@H](CCC(N)=O)NC(=O)[C@@H]2CCCN2C(=O)[C@@H](NC(=O)[C@@H](N)CC(C)C)CSSC[C@@H](C(=O)O)NC(=O)[C@H](CCC(N)=O)NC(=O)[C@H](Cc2ccc(O)cc2)NC1=O [Peptide 8, Leu-c[Cys-Pro-Gln-Leu-Tyr-Gln-Cys]] (H-LCPQLYQC-OH; disulfide 2-8)",least active,856 µM,–,–,38,–
"CC(C)C[C@@H]1NC(=O)[C@H](CCC(N)=O)NC(=O)[C@@H]2CCCN2C(=O)[C@@H](NC(=O)[C@@H](N)CC(C)C)CSSCCNC(=O)[C@H](CCCNC(=N)N)NC(=O)[C@H](CCC(N)=O)NC(=O)[C@H](Cc2ccc(O)cc2)NC1=O [Peptide 9, Leu-c[Cys-Pro-Gln-Leu-Tyr-Gln-Arg-CAM]] (H-LCPQLYQR-Cysteamide; disulfide 2-C)",intermediate cytotoxicities,–,inactive; also recorded: N.I. at 500 µM and r.t. N.I. at 500 µM and 37 °C under stirring,inactive; also recorded: N.I. at 500 µM and r.t. N.I. at 500 µM and 37 °C under stirring,–,–
CC(C)C[C@@H]1NC(=O)[C@H](CCC(N)=O)NC(=O)[C@@H]2CCCN2C(=O)[C@H](CO)NC(=O)[C@@H](N)CSSC[C@@H](C(=O)O)NC(=O)[C@H](CCC(N)=O)NC(=O)[C@H](Cc2ccc(O)cc2)NC1=O [Peptide 10] (H-CSPQLYQC-OH; disulfide 1-8),intermediate cytotoxicities,484 µM and 474 µM,–,–,50,–
"LSPQLYQR [[Pro^3]LR, proline mutant of LR]",–,–,–,–,–,% inhibition of hTS [3]: 25% at 100 µM ^c
